The target in this assay is T1, Papain (Carica papaya, UniProt P00784).
T1 sequence (P00784 whole entry): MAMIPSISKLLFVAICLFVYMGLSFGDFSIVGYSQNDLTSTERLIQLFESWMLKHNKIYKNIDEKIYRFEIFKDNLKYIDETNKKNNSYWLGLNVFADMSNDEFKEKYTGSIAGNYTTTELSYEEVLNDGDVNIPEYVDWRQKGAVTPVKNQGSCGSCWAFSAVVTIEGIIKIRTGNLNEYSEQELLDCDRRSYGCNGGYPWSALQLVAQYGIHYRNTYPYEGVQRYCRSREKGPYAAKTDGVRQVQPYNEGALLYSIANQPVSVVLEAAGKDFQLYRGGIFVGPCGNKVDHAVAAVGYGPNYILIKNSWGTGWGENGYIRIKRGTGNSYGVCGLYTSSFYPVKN
Nature of the assay: Kinetic Assay. How it is done:
To characterize the type and extent inhibition of papain by fukugetin, papain (0.04 nM) was incubated with four concentrations of fukugetin (1.5, 3, 6 and 12μM). For cruzain, enzyme concentration was 12 nM and inhibitor concentrations varied from 1 μM to 10 μM. Analysis of enzyme kinetic data was carried out using the Lineweaver-Burk plot30 in Grafit 5.0 software. Hydrolytic activity was measured […], mixing fukugetin and enzymes by addition growingconcentrations of Cbz-Phe-Arg-MCA (0.5-22 μM).

`O=C1c2c(O)cc(O)cc2OC(c2ccc(O)cc2)C1c1c(O)cc(O)c2c(=O)cc(-c3ccc(O)c(O)c3)oc12` (stereo unspecified) [Fukugetin] had a Ki of 13.4 µM. In other words, the double-digit micromolar range.

The values are drawn from BindingDB's records for doi:10.3109/14756366.2012.668539 (Federal University of São Paulo, 2013).
